Source: patent publication US20240115532A1, “USE OF L-ERGOTHIONEINE FOR ALLEVIATING AND PREVENTING AGE-RELATED VISUAL DEGENERATION” (NANJING NUTRABUILDING BIO-TECH CO., LTD., priority 2021, published 2024)

What was measured:
[1] = system: subretinal choroidal neovascularization (CNV); assay: Fluorescein angiography of Matrigel-induced subretinal CNV in aged mice; format: in vivo, C57BL/6J mice; conditions: 2 or 10 mg/kg/d by gavage for 5 months
Excerpt: The healthy and male C57BL/6J mice at 18-24 months of age were maintained under the barrier conditions in a temperature-controlled environment and fed a commercial mouse chow.
The healthy and male C57BL/6J mice at 14-18 months of age were maintained under the barrier conditions in a temperature-controlled environment and fed a commercial mouse chow.
Animal mode of subretinal choroidal neovascularization (CNV): All mice were subretinally injected with Matrigel in both eyes under general anesthesia. The liquid Matrigel (75% v/v) was prepared using phosphate-buffered saline (PBS) at 4° C. After exposing the sclera, an incision was made between the limbus and the equator using a sharp No. 33 size needle. The Matrigel suspension (0.5 μl per eye) administered via a Hamilton microsyringe with a No. 33 blunt tip needle was slowly injected into the subretinal space along the previous needle tract. Following injection, the Matrigel polymerized to form a solid gel. Fluorescence angiograms were performed over a period of 3 weeks to identify whether mice have CNV.
Fluorescein angiography: After subretinal injection, fluorescein angiograms were obtained on days 3, 7, 10, 14, and 21. Briefly, every mouse group (n=5) were anesthetized with ketamine and xylazine, and the pupils were dilated with 0.5% tropicamide eye drops. […]

[2] = system: Reactive oxygen species (ROS); assay: ROS in retina tissue by 2',7'-dichlorofluorescein diacetate fluorescence; format: in vivo, C57BL/6J mice; conditions: aged mice, 2 or 10 mg/kg/d by gavage for 5 months
Protocol: (§1) They were randomly divided into three groups: (1) non-supplement group (Con, n=6); (2) L-Ergothioneine supplement group with low dosage (L-Ergothioneine, 2 mg/kg/d, n=6); (3) L-Ergothioneine supplement group with high dosage (L-Ergothioneine, 10 mg/kg/d, n=6). Some mice were administered L-Ergothioneine for once daily by gavage in normal saline solution for 5 months.
(§2) Mice were euthanized by CO2 inhalation followed by cervical dislocation at the end of study and their eyes were immediately removed. The eyes of some mice (n=3) fixed in 2% paraformaldehyde for 2 h and the retina samples of some mice (n=3) were isolated from eyes radically. All tissues were frozen in optimal cutting temperature embedding compound.
Partial retina tissues were obtained and rapidly broken up in ice-cold normal saline. A tissue homogenate (10%, w/v) was then prepared.
Antioxidant capacity of the retina was measured using an assay based on the ability of the sample to inhibit the oxidation of 2,2′-azino-di-[3-ethylbenzthiazoline sulfonate]+(ABTS) by metmyoglobin. The amount of ABTS+ produced was measured in terms of the decrease in absorbance caused by the antioxidants in the sample. Reactive oxygen species (ROS) were quantified by fluorescence spectroscopy using 2′,7′-dichlorofluorescein diacetate.

[3] = system: Nrf2; assay: Nrf2 real-time PCR in retina tissues; format: in vivo, C57BL/6J mice; conditions: aged mice, 2 or 10 mg/kg/d by gavage for 5 months
Protocol: as §1, §2
Total RNA was isolated from retina tissues using Trizol reagent. Real-time PCR was measured and performed with the following primers: Nrf2 forward 5′-[…]-3′. RNA samples were reverse-transcribed to cDNA and subjected to quantitative PCR, performed with a Light Cycler 96 Real-Time PCR System using the AceQ qPCR SYBR Green Master Mix. Nrf2 measurements can be identify the capacity of L-Ergothioneine-mediated Nrf2.

[4] = system: VEGF; assay: VEGF ELISA in retina tissue homogenate; format: in vivo, C57BL/6J mice; conditions: aged mice, 2 or 10 mg/kg/d by gavage for 5 months
Protocol: They were randomly divided into three groups: (1) non-supplement group (Con, n=6); (2) L-Ergothioneine supplement group with low dosage (L-Ergothioneine, 2 mg/kg/d, n=6); (3) L-Ergothioneine supplement group with high dosage (L-Ergothioneine, 10 mg/kg/d, n=6). Some mice were administered L-Ergothioneine for once daily by gavage in normal saline solution for 5 months. […] Partial retina tissues were obtained and rapidly broken up in ice-cold normal saline. A tissue homogenate (10%, w/v) was then prepared. Retina tissues homogenate was centrifuged (2000 rpm, 10 min, 4° C.) and the supernatants were collected and applied to a pre-coated human VEGF microplate. VEGF concentrations was measured in experimental groups of mice using enzyme-linked immunosorbent assay (ELISA) kits to evaluate the levels of proinflammatory cytokines in the retina. This test can assess that the ability of L-Ergothioneine to prevent age-related visual degeneration-induced increases in VEGF level.

[5] = system: oxidation-induced EMT in RPE; assay: Immunoreactivity of mesenchymal markers (Slug, Snail, vimentin, OB-cadherin) in RPE sections; format: in vivo, C57BL/6J mice; conditions: aged mice, 2 or 10 mg/kg/d by gavage for 5 months
Protocol: as §1, §2
From paraffin embedded blocks, 3 μm-thick parasagittal serial sections were cut with a microtome for future testing the immunoreactivity of mesenchymal markers. The immunoreactivity of mesenchymal markers (Slug, Snail, vimentin, OB-cadherin) was examined with a confocal microscope. And semi-quantitative comparative densitometric analysis performed by ImageJ of the immunoreactivity of the mesenchymal markers in 1-μm parasagittal sections of RPE. Alexa Fluor secondary antibodies were used to detect specific mesenchymal markers. DAPI (4,6-diamidino-2-fenilindole, dihydrochloride) was used to stain the nuclei of RPE cells.

[6] = system: subretinal choroidal neovascularization; assay: Zebrafish wet macular degeneration model (cobalt chloride), choroidal vessel area; format: in vivo; conditions: 500, 1000, 2000 μg/mL in water, 3 days, 28° C., FIG. 1
Protocol: Experimental animals: Zebrafish were raised in fish water at 28° C. (water quality: 200 mg of instant sea salt was added to each 1 L of reverse osmosis water, the conductivity was 450-550 μS/cm; pH was 6.5-8.5; hardness was […] CaCO3). Transgenic vascular green fluorescent zebrafish (Fli-1 strain) were reproduced by natural paired mating. Age is 1 day after fertilization (1 dpf).
Sample preparation: L-Ergothioneine, white powder, was prepared into 2.00 mg/mL mother solution with standard dilution water. Positive control: Aescin and digitalis double glucoside eye drops was directly sucked the original solution.
Experimental design: The transgenic vascular green fluorescent strain zebrafish aged 1 day after fertilization (1 dpf) were randomly selected and placed in a 6-well plate, with 30 fish in each well (each experimental group). L-Ergothioneine (concentrations of 500, 1000, and 2000 μg/mL) were administered in water solution, respectively, and the positive control escin and digitalis glucoside eye drops (containing 0.3 μg/mL of digitonin and 2.0 μg/mL of escin) were administered, respectively. […] After 3 days of treatment at 28° C., 10 zebrafish were randomly selected from each experimental group and placed under a fluorescence microscope to take pictures, and the NIS-Elements D 3.20 advanced image processing software was used to analyze and collect the data. […]

[7] = system: zebrafish retinal structure; assay: Zebrafish eye histopathology (H&E) after cobalt chloride model; format: in vivo; conditions: FIG. 2
Excerpt: Experimental animals, sample preparation, sample processing and administration are same as test 4. After that, these zebrafish after 3 days of administration were fixed with 4% histiocyte fixative, then stained with H&E and they were subject to test ocular histopathological analysis.

[8] = system: ROS; assay: Zebrafish ROS fluorescence value (CM-H2DCFDA); format: in vivo; conditions: wild-type AB strain, 500, 1000, 2000 μg/mL, 2 days plus 20 hours staining, FIG. 3
Protocol: After 2 days of supplementation at 28° C., zebrafish were stained with CM-H2DCFDA, and the original concentration in each well remained unchanged. 10 zebrafish were randomly selected from each experimental group and transferred to black 96 microtiter plates.

[9] = system: VEGFR1 genes; assay: Zebrafish q-PCR of VEGFR1 genes; format: in vivo; conditions: 3 days at 28° C., β-actin internal reference, FIG. 4
Protocol: Except that the positive control is bevacizumab (a potent antiangiogenic substance), experimental animals, sample preparation of L-Ergothioneine and sample processing are the same as in test 4.
(§3) After 3 days of supplementation at 28° C., the total RNA of each group of zebrafish was extracted using an RNA rapid extraction kit, and the concentration and purity of total RNA were determined by UV-Vis spectrophotometer. Take 2.00 μg of total RNA from zebrafish samples and follow the instructions of the first-strand cDNA synthesis kit to synthesize 20.0 μL of cDNA, and detect the expression of ß-actin and VEGFR1 genes by q-PCR. Using 6-actin as an internal reference for gene expression, the relative RNA expression levels of VEGFR1 genes were calculated.

[10] = system: hif-1α genes; assay: Zebrafish q-PCR of hif-1α genes; format: in vivo; conditions: 3 days at 28° C., FIG. 5
Protocol: as §3
(§4) The other test condition and methods are the same as test 7. Except that just detect 6-actin, hif-1α and vegfaa genes by q-PCR.

[11] = system: vegfaa genes; assay: Zebrafish q-PCR of vegfaa genes; format: in vivo; conditions: 3 days at 28° C., FIG. 6
Protocol: as §3, §4

Q: How did the CNV level [1] turn out when `C[N+](C)(C)[C@@H](Cc1c[nH]c(=S)[nH]1)C(=O)[O-]` [L-Ergothioneine] was run?
A: attenuated obviously

Q: What about the “scavenging of chronic ROS in retina” value [2] of the same compound?
A: about 45%

Q: And the “activation of Nrf2-mediated genes in retina” value [3]?
A: activated

Q: And the “decrease of VEGF level in retina” value [4]?
A: about 50%

Q: And the “mesenchymal marker immunoreactivity in RPE” value [5]?
A: decreased

Q: And the “oxidation-induced EMT / epithelial fibrosis in RPE” value [5]?
A: inhibited

Q: What about the “choroidal vessel area of the zebrafish eye” value [6] of the same compound?
A: could mitigate subretinal choroidal neovascularization

Q: What about the “damage of zebrafish retinal structure (histopathological section)” value ([7]; 500, 1000, 2000 μg/mL, 3 days, H&E) of the same compound?
A: can improve the damage of zebrafish retinal structure

Q: What about the “effect on retinal structure compared with positive control eye drops” value ([7]; versus aescin and digitalis double glucoside eye drops) of the same compound?
A: better than that of aescin and digitalis double glucoside eye drops

Q: And the “ROS fluorescence value of zebrafish” value [8]?
A: good effect on preventing retinal degeneration

Q: And the “relative expression level of VEGFR1 genes” value [9]?
A: decreasing the expression of VEGFR1 genes

Q: What about the “relative expression level of hif-1α genes” value [10] of the same compound?
A: lowering the expression level

Q: What about the “relative expression level of vegfaa genes” value [11] of the same compound?
A: lowering the expression level
